The results in this text go back to PMC9643865, “Bromo-protopine, a novel protopine derivative, alleviates tau pathology by activating chaperone-mediated autophagy for Alzheimer’s disease therapy” (Frontiers in Molecular Biosciences, 2022).

The structures appear in SMILES notation. Where two headings read alike, the source gives them in different places.

The nature of data set [1]: Pharmacokinetic study in brain and plasma after oral dosing, LC-MS/MS. Type of data set: in vivo, ICR mice. How it is done: To determine the amount of PRO-Br in the brain, a pharmacokinetic study was performed employing 3-month-old female ICR mice (n = 6, 30 ± 2 g). PRO-Br (10 mg/kg b. wt) was injected orally. Brain tissues and blood samples (intracardial) were collected at various time-points (0, 15, 30, 45, 60, 75, 120, 240, 360, 480 min). Brain tissues and plasma samples were kept at −80°C until analysis. On the day of analysing the samples, the brain tissues were thawed on ice and half brain tissue was taken for analysis. To 200 mg of tissue, 4 times the volume of methanol (100%) was added, and homogenized until a clear solution was observed. The samples were centrifuged at 15,000 RPM for 10 min at 4°C. The supernatant was separated and analyzed using LC-MS/MS.
Quantification of PRO-Br in mice brains was performed by Agilent 6410 LC-ESI-Triple-Quad/TOF. The mobile phase (A) consisted of water with 0.1% formic acid, and the mobile phase (B) consisted of acetonitrile with 0.1% formic acid (B). C18 column was used to elute the desired solutes, based on the protocol: 0–5 min, 23–50% B; 5–15 min, 50–60% B; 15–15.01 min, 60–95% B; 15.01–22 min, 95% B. The ions of PRO-Br were detected in positive ionization mode. Multiple reaction monitoring (MRM) mode was used to monitor the analytes of PRO-Br.

A further data set concerns 3xTg-AD mice. Nature of the data set: Morris water maze test. In kind it is in vivo. The following applies: oral, 1 and 2.5 mg/kg, 8 months. How it is done: Female homozygous 3xTg-AD mice carrying transgenes for APP (Swedish KM670/671Nl), MAPT (tauP301L) and Psen1 (M146V) were procured from Jackson’s Laboratory (# 004807). The transgenic mice colonies were bred and maintained in the HKBU animal house at 23 ± 2 °C, 60 ± 15% relative humidity with regular access to food and water. Seven-month-old 3xTg-AD mice were randomly segregated into three treatment groups: Tg-Vehicle, 1 mg/kg, and 2.5 mg/kg PRO-Br. PRO-Br was administered orally for 8 months (n = 8). The bodyweight of mice from all the groups was recorded once every week.
To determine the memory functions of experimental mice, the Morris water maze test was performed according to the procedure described previously ([Iyaswamy et al., 2020]). Mice training preliminary to the probe trail was performed in two phases. The first phase, known as the visible-platform training, comprised four trials, for 1 day. In each trial, a platform was placed in the tank, 1 cm below the surface of the (clear) water. The mouse was introduced, and the time required for the mouse to find the platform was recorded. The position of the platform was changed for every trial. […] The distance travelled (cm) to reach the platform in the target quadrant was observed and recorded by a video tracking method (Ethovision, Noldus Information Technology, Version 3).

A further data set relates to P301S mice. Briefly: Contextual fear conditioning test. Type of data set: in vivo. The following applies: oral, 2.5 months. How it is done: Female homozygous P301S mice bearing the transgene for MAPT (P301S), were generous gifts from Michael Goedert. P301S-tau mice (1.5-month-old, n = 8) were administered with PRO-Br daily for 2.5 months. The mice models employed in the study were maintained under 12 h light-dark cycles and were provided ad libitum access to chow and water.
After treating P301S mice with PRO-Br, fear memory consolidation was evaluated by the contextual fear conditioning (CFC) test. The experimental set-up consisted of two individual sound-proof chambers, each having an electric grid on the surface. Inside each chamber, a speaker was attached to introduce a cue tone. The movement of the mice was observed and recorded by ANY maze tracking software on a laptop. The experiment was performed with a continuous white noise (40 units) and white light (40 lux). On the first day of the training session, mice were introduced into the chamber and permitted to explore for 2.5 min. Next, each mouse received three consecutive foot shock cycles; each started with a 28 s cue tone (1,500 Hz) and finished with a 2 s foot shock ([…]). On the second day, the mice were allowed to explore the grid for 3 min, after which they received a cue tone for 30 s without foot shock, and the freezing time was recorded.

The next data set relates to HT22 cells. Nature of the data set: LAMP2A / HSC70 immunocytochemistry and immunoblotting. Type of data set: cell-based, mouse. How it is done:
(§1) SHSY5Y cells stably-expressing mutant tau (SHSYP301L) were cultured in DMEM/F12 + 15% FBS, 3 μg/ml Blasticidin S HCl, and 1X PSN. N2A mouse neuroblastoma and mouse hippocampal neuronal (HT22) cells were cultured in DMEM+10% FBS, and 1X PSN. Sterile complete medium containing PRO-Br was added to the cells, and they were then incubated for 24 h at an optimum temperature of 37°C in a sterile 5% CO2 incubator.
(§2) After PRO-Br treatment, cells were solubilised using cold RIPA lysis buffer (9803, Life Technologies), containing protease and phosphatase inhibitor tablets. Cells were sonicated and centrifuged at 14000 rpm for 15 min. Total protein concentration was determined by BCA protein assay, and the samples were separated on SDS-PAGE and transferred to PVDF membranes. The membranes were blocked, washed, and incubated with primary antibodies (Table 1), and incubated at 4°C, overnight. The membranes were further incubated with the required dilutions of secondary antibody for 1 h, at RT. The chemiluminescent signals were captured using x-ray film in a darkroom, with an appropriate chemiluminescent substrate kit (ThermoFisher Scientific, United States). Films were scanned, and the relative intensities of the signals were analyzed using ImageJ software.
HT22 cells were cultured in sterile 24-well culture dishes containing 14 mm cover-glass. Cells were treated with PRO-Br (12.5 and 25 μM), and DMSO (0.1%), for 24 h. Cells were fixed with paraformaldehyde (4%), permeabilized with triton-X-100 (0.1%), and blocked with BSA (2%). LAMP2A antibody (1:500), and HSC70 antibody (1:500) was added to the processed cells and incubated overnight at four°C. Alexa Fluor® 488 (green) and Alexa Fluor® 594 (red) secondary antibodies (1:400) were added and incubated for 1.5 h at room temperature. FluorSave reagent (Merck Millipore, United States) was added, then cover-slipped, and images were captured by a Leica confocal imaging system.
On the technique in general: A western blot detects proteins with antibodies after separation by electrophoresis.

In the next data set the test system is N2A cells. Nature of the data set: LAMP2A / HSC70 expression. In kind it is cell-based, mouse. The following applies: compared to Trehalose (positive control). How it is done:
as §1, §2

For the molecule `CN1CCc2cc3c(cc2C(=O)Cc2c(Br)cc4c(c2C1)OCO4)OCO3` [PRO-Br, bromo-protopine], the “time retained in the brain” value in data set [1] (10 mg/kg oral, female ICR mice, brain) was 4.2 h. In data set [1] (compared to PRO), the brain penetrating efficacy entry is given as “superior compared to its parent compound”. In addition, in data set [1] (mouse, brain, 10 mg/kg oral, female ICR mice, read-out: brain/plasma ratio), the Kp is 8.08. Further, the Cmax in data set [1] (mouse, 10 mg/kg oral, female ICR mice, brain, read-out: maximum concentration (Cmax) in the brain) worked out at 425 ng/g; in data set [1] (mouse, 10 mg/kg oral, female ICR mice, plasma, read-out: Cmax in the plasma), 91.9 ng/mL. The Tmax in data set [1] (mouse, 10 mg/kg oral, female ICR mice, brain, read-out: maximum time (Tmax) in the brain (converted)) is 30 min; in data set [1] (mouse, 10 mg/kg oral, female ICR mice, plasma, read-out: Tmax in the plasma (converted)), 15 min. Further, the “learning and memory impairment (Morris water maze)” value in the data set on 3xTg-AD mice was “significantly reversed the learning and memory impairment”. Also, the “freezing percentage (CFC)” value with P301S mice is listed as “significant increase in freezing percentage”. For the same molecule, the “expression of LAMP2A” value in the data set with HT22 cells (immunocytochemistry, 12.5 and 25 μM, 24 h) is reported as “distinctly enhanced the expression of LAMP2A in a dose-dependent manner”. Also, the “interaction between HSC70 and LAMP2A” value with HT22 cells (immunofluorescence) is “markedly enhanced the interaction between HSC70 and LAMP2A”. Also, the “expression of LAMP2A and HSC70” value in the data set with N2A cells is “increased expression of LAMP2A and HSC70”.

One may read the Tmax as the time from dosing to the highest level.
